One may read the melting point as the temperature, or range, at which the solid turns liquid. `COCCNC(=O)c1cccc(-c2cccc3c(C)c(Cc4cc(F)cc(Cl)c4)sc23)c1` registered a melting point of 132 to 133 °C.
As for `CCNC(=O)c1cccc2[nH][nH]c(=O)c12`, the melting point was in the range of 209 to 210 °C.
Under `Oc1ccc(Oc2ccc3ccccc3n2)cc1` stands 177 °C.
For `O=C(O)C(CC1CCCC1)c1ccc(Cl)c([N+](=O)[O-])c1` (stereo not given) the value was 112 to 115 °C; for `CCCCCCCCCCCCCCCc1cccc(OC)c1C1NC(=O)NC(C)=C1C(=O)OC` (stereo not given), 101 to 102 °C.
The compound `CCCOc1ccc(-c2c(C)c(=O)cc(-c3ccccc3)n2-c2ccccc2)cc1` yielded a melting point of 165 to 168 °C.
`COc1ccc(C=C(C#N)c2c[nH]c3ccccc23)cc1OC` registered a melting point of 139 to 141 °C.
For `CC(CCC(O)C(C)(C)O)C1CCC2C3CCC4CC(O)CCC4(C)C3CCC12C` (stereo not given) the value was 152 to 154 °C; for `Cc1cc2ncn(Cc3ccc([N+](=O)[O-])cc3)c2cc1C`, 175 to 177 °C.
Under `COc1cc(N)c(C(=O)c2ccnc(Cl)c2)cc1OC` stands 132 to 134 °C; under `O=C(Nc1cccnc1O)C1CCCC1`, 242 to 243 °C; under `O=C(CCS)NC1(C(=O)O)CCCC1`, 127 to 128 °C.
`CSc1ccc(CCC(C)=NO)cc1` gave a melting point of 71 °C.
On to `CCCNC(=O)C(C)Cc1ccc2c(c1)c(Cc1ccc(C(=O)NS(=O)(=O)c3ccccc3C)cc1OC)cn2CC(=O)N(C)C` (stereo not given), for which the melting point fell in the range of 109 to 124 °C.
Compound `O=C(Oc1ccccc1)N1CCC2(CC1)SC(c1ccc(F)cc1)c1ccccc12` (stereo not given) had a melting point of 200 to 201 °C.
For `CC(C)(C)C(O)c1ccc(C(=O)O)cc1` (stereo not given) the value was 162 to 163 °C.
The compound `CCOCCC(=O)OCC(=O)C1(O)CCC2C3CC(C)C4=CC(=O)C=CC4(C)C3C(O)CC21C` (stereo not given) gave a melting point of 186 °C.
Under `ClCCCCn1c2c(c3ccccc31)CCSc1ccccc1-2` stands 75 °C; under `O=C1C=C(c2cccn2Cc2ccccc2)C(=O)c2ccccc21`, 99 °C; under `CS(=O)(=O)c1ccc(C(CC2CCCC2)C(N)=O)cc1Br` (stereo not given), 60 to 63 °C.
For `CC(=O)OC1CSC(Oc2ccc(-c3cccnc3F)nc2)C(OC(C)=O)C1OC(C)=O` (stereo not given) the value was 153 °C; for `CCN1CCc2ccc(Nc3ncc(Cl)c(Nc4ccccc4S(=O)(=O)NC)n3)cc2CC1`, 175 °C.
As for `C=CCc1c(O)c(Cl)c(Cl)c2c1CC(C)(c1ccccc1)C2=O` (stereo not given), the melting point came out at 125 °C.
`COC(=O)c1ccc(OS(N)(=O)=O)cc1` showed a melting point of 116 to 118 °C.
Consider `CCCNCCc1ccc(NS(=O)(=O)c2ccc(Br)cc2)cc1`, for which the melting point lay within 141 to 143 °C.
Under `N#CC1=C2C(=NC1=O)c1c(OCc3cccs3)ccc3cccc2c13` stands 241 to 243 °C; under `CC(C)CCC(C)Oc1c(-c2ccc(S(C)(=O)=O)cc2)cnn(-c2ccc(F)cc2)c1=O` (stereo not given), 102 to 103 °C.
Under `Cc1c(C(=O)Nc2ccc(OCCN3CCOCC3)c(C#N)c2)cnn1-c1ccc(C(F)(F)F)cc1` stands 191 to 193 °C.
Under `Cc1cc2c(-c3ccccc3)c(C(=O)NCc3cc(C(F)(F)F)cc(C(F)(F)F)c3)n(CC(N)=O)c(=O)c2cc1C` stands 235 to 237 °C; under `Cc1ccc(NC(=O)Nc2ccc(-c3c(Cc4cccnc4)sc4ncnc(N)c34)cc2)cc1`, 220 to 223 °C.
`COC(=O)c1sc2ccc(N)cc2c1N` came in with a melting point of 128 to 130 °C.
`COc1cc2c(cc1Br)CCC2=O`: the melting point fell in the range of 149 to 151 °C.
For `CC(C)N1N=C(c2ccc3c(c2)CCN(C2CCC2)CC3)CCC1=O` the value was 140 to 141 °C; for `CCCCCCOc1c(OCCCCCC)c(OC(=O)C(C)(C)C)c2ccccc2c1OC(=O)C(C)(C)C`, 111 to 112 °C; for `CCCCCCCCCCCCCCCC(=O)Nc1cc(NC(=O)CCCCCCCCCCCCCCC)cc(C(=O)N(CC(=O)O)CC(=O)O)c1`, 129 to 133 °C.
`COc1cc2oc(=O)c3c(c2cc1NC(C)=O)CCN(CC(C)=O)C3`: the melting point is 210 to 215 °C.
Under `CC(C)N=C(N)Nc1ccnc(OCCCO)n1` stands 181 to 183 °C.
Under `CC(C)(C)OC(=O)N(C(=O)OC(C)(C)C)c1sc(-c2cncc(F)c2)nc1F` stands 143 °C.
`CCCc1nn(-c2ccc(C(F)(F)F)cn2)cc1CCCOc1c(CC)cnn1CC(=O)O` registered a melting point of 135 to 136 °C.
`N#CSc1c(C2CC2)[nH]c(Cl)c1C#N`: the melting point was 123 °C.
Under `COc1ccc2c(c1)CC(C(N)=O)N2` (stereo not given) stands 228 to 229 °C; under `Cc1cnn(-c2ccccc2)c1-c1nn(-c2cccc(C(F)(F)F)c2)ccc1=O`, 208 to 211 °C; under `CCOc1cccnc1CSCCN=C(NC#N)SC`, 98 to 99 °C.
As to `Cc1nc(N2CCN(Cc3ccccc3)C2=O)sc1C(=O)NCc1cccnc1`, the melting point fell in the range of 153 to 154 °C.
In turn, `COc1ccc2c(c1)OC(C#N)=CO2` registered a melting point of 92 °C.
`O=c1[nH]c2ccccc2n1-c1ccc(Cl)cc1Cl` registered a melting point of 213 to 216 °C.
For `COC(=O)N(CC(=O)O)C(=O)c1cccc2c(C(F)(F)F)c(OC)ccc12` the value was 148 to 150 °C.
In turn, `CC(=O)c1nc(-c2ccncc2C)[nH]c1C` yielded a melting point of 185 to 187 °C.
Regarding `Fc1cc2cc3n(c2cc1Cl)CCNC3`, the melting point is 195 to 197 °C.
Compound `CCOC(=O)COc1c(C)cc(C)c2c1CC(Br)C2=O` (stereo not given) yielded a melting point of 71 to 73 °C.
For `C=CCNC(=O)N1CC(Oc2cccc(C(F)(F)F)c2)C1` the value was 75 to 76 °C; for `CC(C)OC1(C(=O)O)C=C(Cl)C=C(Cl)C1` (stereo not given), 140 to 141 °C; for `CSc1nccc(CC(=O)c2cccc(Br)c2)n1`, 98 to 101 °C.
Compound `OCCOc1nccc(-c2c(-c3ccc(F)cc3)ncn2C2CCC(O)CC2)n1` (stereo not given) registered a melting point of 191 to 193 °C.
Compound `O=C(CCN1CCOCC1)NCc1ccc2c(c1)Cc1c(-c3ccsc3)n[nH]c1-2` had a melting point of 205 to 207 °C.
Regarding `CCCOCCOC(=O)C1=C(C)NC(C)=C(P(=O)(OC(C)C)OC(C)C)C1c1cccc([N+](=O)[O-])c1` (stereo not given), the melting point lay within 125 to 126 °C.
For `CCOC(=O)c1cnc2sccc2c1Cl` the value was 71 to 72 °C; for `CC(=O)Nc1c(OC(C)=O)cc(C)c(C)c1[N+](=O)[O-]`, 209 to 211 °C; for `N#CC(=CNC1CC1)C(=O)c1cc(F)c(F)c(F)c1F`, 88 to 89 °C.
For `Cc1c(-c2ccccc2)sc2ccc(Cl)cc12` the value was 108 to 110 °C.
`CCCCCCCCNc1nc(NCC(O)C2CC(C)(C)NC(C)(C)C2)nc(NCC(O)C2CC(C)(C)NC(C)(C)C2)n1` (stereo not given) gave a melting point of 117 to 119 °C.
Under `COc1ccc(-c2cc3ccccc3s2)cc1` stands 188 to 190 °C; under `O=C(O)Cc1cccc(OCCCc2cc(-c3ccc(C(F)(F)F)cc3)no2)c1`, 126 to 127 °C.
For `Cn1cc(C2=C(c3c4n(c5ccccc35)CCC(COS(C)(=O)=O)C4)C(=O)NC2=O)c2ccccc21` (stereo not given) the value was 259 to 261 °C.
Under `CC(C)(C(=O)O)n1c(=O)[nH]c2cc3ccccc3cc2c1=O` stands 273 to 276 °C.

The values above are taken from a melting point compilation (Tetko et al.; mined from patent text by program, amines drawn as free bases though some values may be those of a salt).
